The test system of assay [1] is C. albicans CA276 (clinical isolate). The experiment in a line: microbe, parasite or virus in culture. Format: cell-based, Candida albicans. To be noted: CA276 (clinical isolate, 48 h). An excerpt:
(§1) The antifungal activities were monitored in RPMI-1640 broth medium by a 2-fold microdilution assay according to the Clinical and Laboratory Standards Institute (CLSI) methods. The Candida albicans CGMCC 2.2086, Candida tropicalis CGMCC 2.1975, and Candida krusei CGMCC 2.1857 fungal strains were purchased from the China General Microbiological Culture Collection Center (CGMCC, Beijing, China). Clinically isolated Candida albicans CA2761 was provided by the 4th Affiliated Hospital of Harbin Medical University. Briefly, fungal strains were cultured on YPD agar plates (1% peptone, 0.5% yeast extract, 1% glucose and 2% agar) at 28 °C to prepare Candida suspensions with a turbidity of a 0.5 McFarland standard. A total of 50 μl inoculum cell suspension diluted in RPMI-1640 broth medium was added to an equal volume of peptide solution to achieve a final peptide concentrations ranging from 0.25 μM to 128 μM in a 96-well plate. Pure broth alone or with inoculum suspensions was used as the negative control or the positive control, respectively. The plate was incubated at 28 °C for 48 h. MIC was considered the lowest concentration at which no fungal growth was visually observed under experimental conditions. […] After 48 h incubation at 28 °C, MFC was defined as the lowest concentration of peptides that killed at least 99.9% of the initial inoculums. Experiments were performed in triplicate with three biological replicates.

In assay [2] the test system is Salmonella enterica serovar typhimurium C77-31. Format: cell-based. To be noted: three independent experiments; for MBC S. typhi C77-31: lowest concentration killing at least 99.9% of initial inoculum. As for the experimental part:
(§2) The peptide antibacterial activity was determined against both gram-positive and gram-negative bacteria strains, including Escherichia coli ATCC 25922, Escherichia coli UB1005, Salmonella enterica serovar typhimurium C77-31, Staphylococcus aureus ATCC 29213, Staphylococcus aureus ATCC 25923, Bacillus subtilis CMCC 63501, and Staphylococcus epidermidis ATCC 12228. Clinically isolated Escherichia coli EC183 was provided by the 4th Affiliated Hospital of Harbin Medical University. MIC of the peptides was measured using a modified version of the National Committee for Clinical Laboratory Standards (NCCLS) broth microdilution method as described previously. The bacterial strains were inoculated and grown to mid-log phase in fresh Mueller-Hinton broth (MHB) at 37 °C. Bacterial inoculum suspensions were prepared at a final concentration of approximately 1 × 10^5 CFU/ml. Peptides were 2-fold serially diluted to make different concentrations, from 0.5 to 256 μM. Equal volumes of inoculum suspensions were then added to each well of a sterile 96-well plate with different concentrations of peptides, and the plate was incubated for 18 h at 37 °C. Broth with or without bacteria was employed as the positive control or the negative control, respectively. MIC was defined as the lowest concentration of peptides that prevented visible turbidity by visual inspection. […] After overnight incubation at 37 °C, MBC was defined as the lowest concentration of peptides that killed at least 99.9% of the initial inoculums. Experiments were performed in triplicate with three biological replicates.

The test system of assay [3] is Staphylococcus aureus ATCC 25923. Format: cell-based. Particulars: ATCC 25923, 18 h. As for the experimental part:
as §2

Another assay concerns Escherichia coli UB1005. Format: cell-based. To be noted: UB1005, 18 h. As for the experimental part: as §2
For assay [4], the system named is Bacillus subtilis CMCC 63501. In kind it is cell-based. To be noted: CMCC 63501, 18 h. As for the experimental part: as §2
Assay [5] deals with Escherichia coli ATCC 25922. Format: cell-based. To be noted: ATCC 25922, 18 h. As for the experimental part:
as §2

Assay [6] relates to Staphylococcus aureus ATCC 29213. In kind it is cell-based. To be noted: ATCC 29213, 18 h. As for the experimental part:
as §2

Assay [7] concerns Staphylococcus epidermidis ATCC 12228. In kind it is cell-based. Particulars: ATCC 12228, 18 h. As for the experimental part:
as §2

Assay [8] concerns Clinically isolated Escherichia coli EC183. Format: cell-based. To be noted: Clinically isolated EC183, 18 h. As for the experimental part:
as §2

Assay [9] relates to Candida krusei CGMCC 2.1857. The experiment in a line: microbe, parasite or virus in culture. In kind it is cell-based. To be noted: CGMCC 2.1857, 48 h.
From the text: as §1

Assay [10] deals with Candida albicans CGMCC 2.2086. Put plainly: microbe, parasite or virus in culture. In kind it is cell-based. To be noted: CGMCC 2.2086, 48 h.
From the text: as §1

The subject of assay [11] is Candida tropicalis CGMCC 2.1975. The experiment in a line: microbe, parasite or virus in culture. In kind it is cell-based. To be noted: CGMCC 2.1975, 48 h; for MFC: read-out: MFC C. tropicalis 2.1975; for MIC: read-out: MIC C. tropicalis 2.1975.
From the text: as §1

SMILES strings stand for the structures. Values after ≈ are worked out from the molar mass of the structure shown. Marks after values point to notes of the source that are not given here. Peptide text beside a SMILES is read from it.

In the case of `CC[C@H](C)[C@H](NC(=O)[C@H](Cc1c[nH]c2ccccc12)NC(=O)[C@H](CCCCN)NC(=O)[C@H](CC(C)C)NC(=O)[C@@H](NC(=O)[C@H](CCCCN)NC(=O)CNC(=O)[C@@H](NC(=O)[C@H](CCCCN)NC(=O)[C@H](CCCCN)NC(=O)[C@H](CC(C)C)NC(=O)[C@H](CCCNC(=N)N)NC(=O)[C@H](CCCCN)NC(=O)[C@H](CCCNC(=N)N)NC(=O)[C@@H](NC(=O)[C@H](CCCCN)NC(=O)[C@H](CCCCN)NC(=O)[C@@H](N)CCCNC(=N)N)[C@@H](C)O)[C@@H](C)CC)C(C)C)C(N)=O` [RI18] (H-RKKTRKRLKKIGKVLKWI-NH2), in assay [1], the MFC (usually the lowest tested concentration that kills the fungus rather than only halting it) was found to be 16 µM (≈ 36.5 µg/mL) and the MIC worked out at 8 µM (≈ 18.2 µg/mL). Also, in assay [2] (broth microdilution, MHB, ~1 × 10^5 CFU/ml, 18 h at 37 °C, visual), the “MIC S. typhi C77-31” value came out at 2 µM (≈ 4.56 µg/mL). Moreover, the “MBC S. typhi C77-31” value in assay [2] was 4 µM (≈ 9.12 µg/mL). In [3], this compound gave an MBC S. aureus 25923 of 8 µM (≈ 18.2 µg/mL) and an MIC S. aureus 25923 of 8 µM (≈ 18.2 µg/mL). In addition, in the assay on Escherichia coli UB1005, the “MBC E. coli 1005” value turned out to be 4 µM (≈ 9.12 µg/mL) and the “MIC E. coli 1005” value came out at 2 µM (≈ 4.56 µg/mL). Also, in assay [4], the “MBC B. subtilis 63501” value was found to be 2 µM (≈ 4.56 µg/mL) and the “MIC B. subtilis 63501” value is 1 µM (≈ 2.28 µg/mL). In addition, in [5], the “MBC E. coli 25922” value was 4 µM (≈ 9.12 µg/mL) and the “MIC E. coli 25922” value came to 2 µM (≈ 4.56 µg/mL). In assay [6], this compound displayed an MBC S. aureus 29213 of 4 µM (≈ 9.12 µg/mL) and an MIC S. aureus 29213 of 4 µM (≈ 9.12 µg/mL). Moreover, in assay [7], the “MBC S. epidermidis 12228” value stood at 16 µM (≈ 36.5 µg/mL) and the “MIC S. epidermidis 12228” value is 4 µM (≈ 9.12 µg/mL). Also, in [8], the “MBC E. coli EC183” value was found to be 2 µM (≈ 4.56 µg/mL) and the “MIC E. coli EC183” value was 1 µM (≈ 2.28 µg/mL). In assay [9] (read-out: MFC C. krusei 2.1857), the MFC came out at 8 µM (≈ 18.2 µg/mL). Moreover, the MIC in [9] (read-out: MIC C. krusei 2.1857) worked out at 4 µM (≈ 9.12 µg/mL). For the same compound, in [10] (read-out: MFC C. albicans 2.2086), the MFC is recorded as 32 µM (≈ 72.9 µg/mL). In addition, the MIC in assay [10] (read-out: MIC C. albicans 2.2086) was found to be 16 µM (≈ 36.5 µg/mL). Further, in assay [11], the MFC is 4 µM (≈ 9.12 µg/mL) and the MIC was 2 µM (≈ 4.56 µg/mL).

As to `CC[C@H](C)[C@H](NC(=O)[C@H](CCCCN)NC(=O)[C@H](CCCCN)NC(=O)[C@H](CC(C)C)NC(=O)[C@H](CCCNC(=N)N)NC(=O)[C@H](CCCCN)NC(=O)[C@H](CCCNC(=N)N)NC(=O)[C@@H](NC(=O)[C@H](CCCCN)NC(=O)[C@H](CCCCN)NC(=O)[C@H](CCCNC(=N)N)NC(=O)[C@H](CC(C)C)NC(=O)[C@H](CCCNC(=N)N)NC(=O)[C@H](CCCNC(=N)N)NC(=O)[C@H](Cc1ccccc1)NC(=O)[C@H](CCCNC(=N)N)NC(=O)CN)[C@@H](C)O)C(=O)NCC(=O)N[C@@H](CCCCN)C(=O)N[C@H](C(=O)N[C@@H](CC(C)C)C(=O)N[C@@H](CCCCN)C(=O)N[C@@H](Cc1c[nH]c2ccccc12)C(=O)N[C@H](C(=O)N1CCC[C@H]1C(=O)N1CCC[C@H]1C(=O)N[C@H](C(=O)N[C@H](C(=O)NCC(=O)N[C@@H](CO)C(=O)N[C@H](C(=O)N1CCC[C@H]1C(=O)N[C@@H](CC(C)C)C(=O)NCC(=O)N[C@@H](CS)C(=O)NCC(N)=O)[C@@H](C)CC)C(C)C)[C@@H](C)CC)[C@@H](C)CC)C(C)C` [PMAP-36] (H-GRFRRLRKKTRKRLKKIGKVLKWIPPIVGSIPLGCG-NH2), in assay [1], the MFC C. albicans CA276 turned out to be 128 µM (≈ 532 µg/mL) and the MIC C. albicans CA276 worked out at 128 µM (≈ 532 µg/mL). Further, the “MBC S. typhi C77-31” value in assay [2] worked out at 2 µM (≈ 8.31 µg/mL). In assay [3], the “MBC S. aureus 25923” value stood at 4 µM (≈ 16.6 µg/mL). For the same compound, the “MBC E. coli 1005” value in the assay on Escherichia coli UB1005 is on record as 2 ^c (2) μM. In addition, in assay [4], the “MBC B. subtilis 63501” value is recorded as 1 (1) μM and the “MIC B. subtilis 63501” value is recorded as 1 (1) μM. Besides, the “MBC E. coli 25922” value in assay [5] is 4 µM (≈ 16.6 µg/mL). For the same compound, the “MBC S. aureus 29213” value in assay [6] worked out at 4 µM (≈ 16.6 µg/mL). For the same compound, the “MBC S. epidermidis 12228” value in assay [7] was found to be 4 µM (≈ 16.6 µg/mL). Besides, in assay [8], the MBC E. coli EC183 was determined as 1 µM (≈ 4.16 µg/mL) and the MIC E. coli EC183 amounted to 1 µM (≈ 4.16 µg/mL). Further, in assay [9], the MFC C. krusei 2.1857 is 8 µM (≈ 33.3 µg/mL) and the MIC C. krusei 2.1857 was found to be 8 µM (≈ 33.3 µg/mL). Also, in [10], the MFC C. albicans 2.2086 amounted to 128 µM (≈ 532 µg/mL) and the MIC C. albicans 2.2086 was found to be 128 µM (≈ 532 µg/mL). Also, in assay [11], the MFC amounted to 2 µM (≈ 8.31 µg/mL) and the MIC is 1 µM (≈ 4.16 µg/mL).
